According to US20160115508A1, “PARTHENOLIDE DERIVATIVES, METHODS FOR THEIR PREPARATION AND THEIR USE AS ANTICANCER AGENTS” (UNIVERSITY OF ROCHESTER, priority 2013, published 2016):

What was measured:
[1] = system: normal hematopoietic cells (human umbilical cord blood cells), including the progenitor (CD34+) subpopulation; assay: Cytotoxicity against normal hematopoietic (cord blood) cells and CD34+ progenitors; assay type: cell-based; settings: FIG. 11
Procedure: As described in EXAMPLE 6, other parthenolide derivatives were prepared via conversion of 9-hydroxy-parthenolide or 14-hydroxy-parthenolide with hydroxyl group functionalization strategies other than acylation. These include PTL-14-20 and PTL-14-21 prepared via hydroxyl group alkylation, and PTL-9-17 through PTL-9-21 and PTL-14-22 through PTL-14-27 prepared via metal-catalyzed O—H functionalization. […] A particularly relevant result from the present studies is the discovery that the C9 and C14 sites represent two ‘hot spots’ for potentiating the antileukemic activity of parthenolide.

M9-ENL1 leukemia cells = assay: Antileukemic activity, reduction of viability of M9-ENL1 cells; assay type: cell-based, human; settings: FIG. 10
Procedure: Based on the structure-activity information acquired as described above, additional parthenolide analogs were prepared according to the methods provided herein which contain variously substituted aromatic and heterocyclic substituents at position C9 (e.g., PTL-9-14 through PTL-9-16) or position C14 (e.g., PTL-14-14 through […]). These compounds were tested for antileukemic activity in cell-based assay using M9-ENL1 leukemia cells (FIG. 10).

| SMILES | cytotoxicity against normal hematopoietic cells incl. CD34+ progenitors [1] | antileukemic activity compared to parthenolide (M9-ENL1 leukemia cells) |
| --- | --- | --- |
| C=C1C(=O)O[C@H]2[C@H]1C[C@H](OC(C(=O)OCC)c1ccccc1)/C(C)=C/CC[C@@]1(C)O[C@@H]21 (stereo partly drawn) [PTL-9-18] | no increase in cytotoxicity | considerably more active than parthenolide |
| C=C1C(=O)OC2C1CC(OC(C(=O)OCC)c1ccccc1C(F)(F)F)C(C)=CCCC1(C)OC21 (stereo not drawn) [PTL-9-19] | no increase in cytotoxicity |  |
